Experimental data taken from patent US4281121A, “1,3,4-Thiadiazole-2-carboxylic acid derivatives, process for making the same and fungicidal and nematocidal compositions containing same” (Schering Aktiengesellschaft, priority 1978, dated 1981).
Read-outs that look alike come from different tables or passages of the source.

What was measured:
Venturia inaequalis = experiment: Prophylactic leaf treatment of apples in open field test against Venturia inaequalis; format: in vivo; conditions: 3 weeks
Pythium ultimum = experiment: Threshold concentration test for use of the compounds against Pythium ultimum (infested soil, garden peas); format: in vivo; parameters: key to root evaluation (1-4): 4: white roots without fungous necrosis; 3: white roots, minor fungous necrosis; 2: brown roots, already more pronounced fungous necrosis; 1: heavy fungous necrosis, roots rotted; conditions: for root evaluation (1-4): 3 weeks; for number of sound peas: 20 grains per dish, 3 weeks at 20-24° C.
Protocol: Threshold concentration test for use of the compounds against Pythium ultimum
A 20% concentration of certain pulverulent active agents as listed below were mixed in uniform manner into a soil which had been heavily infested by Pythium ultimum. The thus treated soil was then placed into clay dishes of a capacity of 0.5 l earth. Without any intermediate time lapse 20 grain of garden peas (Pisum sativum L. convar. medullare Alef.) of the type "Wunder von Kelvedon" were then seeded into each of the clay dishes. After a cultivation period of three weeks at 20° to 24° C. in a hothouse the number of sound peas was determined and a root evaluation was carried out. The active agents amounts and results appear from the following table.
(§1) The root evaluation was carried out on a scale from 1 to 4 as follows: […]

Tilletia caries = experiment: Treatment of oat seeds infested with Tilletia caries (spore germination); format: in vivo
Piricularia oryzae = format: in vivo; conditions: 5 days
Plasmopara viticola = experiment: Prophylactic leaf treatment of grapevines in the hothouse against Plasmopara viticola; format: in vivo
Protocol: Effects of prophylactic leaf treatment of grapevines in the hothouse against Plasmopara viticola
Young grapevine plants having from 5 to 8 leaves were sprayed dripping wet with the concentrations of active agents stated in the table below. After drying of the spray deposit the leaves were sprayed with an aqueous suspension of sporangia of the fungus (about 20,000 per ml); the spraying was applied to the bottom side of the leaves. The plants were then immediately incubated in a hothouse at a temperature of 22° to 24° C. and at maximum water saturation in the atmosphere. Beginning with the second day the humidity of the air was reduced for 3 to 4 days to normal level (30 to 70% saturation) and was then maintained for another day on the level of full saturation. Subsequently, the percentage portion of the fungus infested surface of each leaf was noted and the average per treatment was calculated in order to determine the fungicidal activity. This was done on the basis of the following formula: [formula]
The active compounds were applied in the form of a 20% concentration spray powder.

Fusarium avenaceum = experiment: Threshold concentration test in case of Fusarium avenaceum (infested soil, garden peas); format: in vivo; conditions: for number of sound peas: 20 grains per dish, 18 days at 20-24° C.; for root evaluation (1-4): 18 days
Protocol: Threshold concentration test in case of Fusarium avenaceum
A 20% pulverulent active agent of the type further identified in the table below was mixed in uniform manner with a soil which had been heavily infested with Fusarium avenaceum. The thus treated soil was then placed into clay dishes of a capacity of 0.5 l of earth. Each dish was seeded without any intervening time with 20 grains of garden peas (Pisum sativum L. convar. medullare Alef.) of the type "Wunder von Kelvedon". After a cultivation time of 18 days at 20° to 24° C. in a hot house the number of sound peas was determined and a root evaluation was carried out. The active agents employed, the amounts and results appear from the following table.
as §1

[1] = test system: Helminthosporium gramineum; experiment: Seed treatment in open field tests for infestation by Helminthosporium gramineum (barley); format: in vivo
Protocol: Seed treatment in open field tests for infestation by Helminthosporium gramineum
The active agents were used in the form of pulverulent compositions. After about 8 months in case of winter barley and after about 3 months in case of summer barley the infested plants were counted and the activity was calculated by the formula [formula]

Helminthosporium gram = conditions: about 5 weeks
Protocol: Treatment of barley seeds infested with Helminthosporium gram
After emergence, the plants were subjected to illumination for 12 hours per day. After about 5 weeks the infested plants were counted and the total number of plants for each test were also counted. The active agents tested were used as pulverulent compositions.

[2] = concentration of active agent 0.005 (in gram)
[3] = concentration of active agent 0.025 (in gram)
[4] = concentration of active agent 0.1 (percentages)
[5] = concentration of active agent 0.001 (unit not given)
[6] = concentration of active agent 0.005 (unit not given)
[7] = concentration of active agent 0.025 (unit not given)
[8] = concentration of active agent 0.02 (percentages)

Structure (SMILES)	root evaluation (1-4) (Pythium ultimum; 20 mg/l soil)	number of sound peas (Pythium ultimum; 20 mg/l soil)	root evaluation (1-4) (Pythium ultimum; 40 mg/l soil)	number of sound peas (Pythium ultimum; 40 mg/l soil)	root evaluation (1-4) (Pythium ultimum; 80 mg/l soil)	number of sound peas (Pythium ultimum; 80 mg/l soil)	% activity (Tilletia caries; 20 g active agent per 100 kg) [%]	% activity (Tilletia caries; 50 g active agent per 100 kg) [%]	% activity (Piricularia oryzae; [4]) [%]	% activity (Helminthosporium gram; 50 g active agent per 100 kg) [%]	further results
N#CC1=C(C#N)C(=O)c2cc3ccccc3cc2C1=O [2,3-dinitrilo-1,4-anthraquinone, reference compound]											% activity (Venturia inaequalis; [2]): 86%; % activity (Venturia inaequalis; [3]): 94%
CCCC[S+]([O-])c1nnc(C(N)=O)s1 (centres unmarked) [5-butylsulfinyl-1,3,4-thiadiazole-2-carboxamide]	1	10	4	15	4	19	95	100	93		% activity (Plasmopara viticola; [5]): 75%; % activity (Plasmopara viticola; [6]): 99.8%; % activity (Plasmopara viticola; [7]): 100%
CC(C)CS(=O)(=O)c1nnc(C#N)s1 [5-isobutylsulfonyl-1,3,4-thiadiazole-2-carbonitrile]							93	100	100		number of sound peas (Fusarium avenaceum; 25 mg/l soil): 19; root evaluation (1-4) (Fusarium avenaceum; 25 mg/l soil): 4; number of sound peas (Fusarium avenaceum; 50 mg/l soil): 20; root evaluation (1-4) (Fusarium avenaceum; 50 mg/l soil): 4; number of sound peas (Fusarium avenaceum; 100 mg/l soil): 19; root evaluation (1-4) (Fusarium avenaceum; 100 mg/l soil): 4; % activity (Plasmopara viticola; [5]): 79%; % activity (Plasmopara viticola; [6]): 87%; % activity (Plasmopara viticola; [7]): 99%
CC(C)S(=O)(=O)c1nnc(C(N)=O)s1 [5-isopropylsulfonyl-1,3,4-thiadiazole-2-carboxamide]	4	17	4	18	4	19			40		
CC(C)S(=O)(=O)c1nnc(C(=O)NCC2CCCCC2)s1 [5-isopropylsulfonyl-1,3,4-thiadiazole-2-carboxylic acid-cyclohexylmethylamide]							92	97	98		% activity (Plasmopara viticola; [6]): 92%; % activity (Plasmopara viticola; [7]): 97%
CCCCNC(=O)c1nnc([S+](C)[O-])s1 (centres unmarked) [5-methylsulfinyl-1,3,4-thiadiazole-2-carboxylic acid-butylamide]	2	12	4	15	4	17	99.8	100		100	% activity (Tilletia caries; 10 g active agent per 100 kg): 99%; % activity (Venturia inaequalis; [2]): 86%; % activity (Venturia inaequalis; [3]): 99%; % activity ([1]; summer barley, 50 g active agent/100 kg barley, about 3 months): 100%; % activity (Plasmopara viticola; [7]): 93%; % activity (Helminthosporium gram; 10 g active agent per 100 kg): 67%; % activity (Helminthosporium gram; 20 g active agent per 100 kg): 97%
COCCCNC(=O)c1nnc(S(C)(=O)=O)s1 [5-methylsulfonyl-1,3,4-thiadiazole-2-carboxylic acid-(3-methoxypropyl)-amide]	1	9	4	20	4	19			90		
C=CCNC(=O)c1nnc(S(C)(=O)=O)s1 [5-methylsulfonyl-1,3,4-thiadiazole-2-carboxylic acid-allylamide]	4	19	4	18	4	18	100	100	94	100	
CN(C)C(=O)c1nnc(S(C)(=O)=O)s1 [5-methylsulfonyl-1,3,4-thiadiazole-2-carboxylic acid-dimethylamide]	4	18	4	20	4	18			98	98	% activity (Piricularia oryzae; [8]): 91%; % activity ([1]; winter barley, 50 g active agent/100 kg barley, about 8 months): 98%; % activity ([1]; winter barley, 100 g active agent/100 kg barley, about 8 months): 100%; % activity (Helminthosporium gram; 20 g active agent per 100 kg): 87%
CCC[S+]([O-])c1nnc(C(=O)NCC)s1 (centres unmarked) [5-propylsulfinyl-1,3,4-thiadiazole-2-carboxylic acid-ethylamide]									90	94	
CCCNC(=O)c1nnc([S+]([O-])CCC)s1 (centres unmarked) [5-propylsulfinyl-1,3,4-thiadiazole-2-carboxylic acid-propylamide]							99.3	100	93	94	
CCCS(=O)(=O)c1nnc(C#N)s1 [5-propylsulfonyl-1,3,4-thiadiazole-2-carbonitrile]							100	100	99.5		number of sound peas (Fusarium avenaceum; 25 mg/l soil): 18; root evaluation (1-4) (Fusarium avenaceum; 25 mg/l soil): 4; number of sound peas (Fusarium avenaceum; 50 mg/l soil): 20; root evaluation (1-4) (Fusarium avenaceum; 50 mg/l soil): 4; number of sound peas (Fusarium avenaceum; 100 mg/l soil): 20; root evaluation (1-4) (Fusarium avenaceum; 100 mg/l soil): 4; % activity (Tilletia caries; 10 g active agent per 100 kg): 99%
C=CCNC(=O)c1nnc(S(=O)(=O)CCC)s1 [5-propylsulfonyl-1,3,4-thiadiazole-2-carboxylic acid-allylamide]	3	13	4	15	4	15	99.7	100	93		% activity (Tilletia caries; 10 g active agent per 100 kg): 99.3%
CCCS(=O)(=O)c1nnc(C(=O)N(C)C)s1 [5-propylsulfonyl-1,3,4-thiadiazole-2-carboxylic acid-dimethylamide]	2	17	4	20	4	19	100	100	93	93	% activity (Plasmopara viticola; [6]): 75%; % activity (Plasmopara viticola; [7]): 90%
CCCS(=O)(=O)c1nnc(C(=O)NC(C)C)s1 [5-propylsulfonyl-1,3,4-thiadiazole-2-carboxylic acid-isopropylamide]	1	9	4	20	4	18	99.8	100	90		number of sound peas (Fusarium avenaceum; 25 mg/l soil): 14; root evaluation (1-4) (Fusarium avenaceum; 25 mg/l soil): 2; number of sound peas (Fusarium avenaceum; 50 mg/l soil): 16; root evaluation (1-4) (Fusarium avenaceum; 50 mg/l soil): 3; number of sound peas (Fusarium avenaceum; 100 mg/l soil): 17; root evaluation (1-4) (Fusarium avenaceum; 100 mg/l soil): 4; % activity (Tilletia caries; 10 g active agent per 100 kg): 98%
CCC(C)S(=O)(=O)c1nnc(C#N)s1 (centres unmarked) [5-sec.-butylsulfonyl-1,3,4-thiadiazole-2-carbonitrile]							91	98	99.5		number of sound peas (Fusarium avenaceum; 25 mg/l soil): 20; root evaluation (1-4) (Fusarium avenaceum; 25 mg/l soil): 4; number of sound peas (Fusarium avenaceum; 50 mg/l soil): 19; root evaluation (1-4) (Fusarium avenaceum; 50 mg/l soil): 4; number of sound peas (Fusarium avenaceum; 100 mg/l soil): 20; root evaluation (1-4) (Fusarium avenaceum; 100 mg/l soil): 4; % activity (Tilletia caries; 10 g active agent per 100 kg): 75%
CN(CCC(N)CC(=O)NC1C=CC(n2ccc(N)nc2=O)OC1C(=O)O)C(=N)N (centres unmarked) [Blasticidin-S, reference compound]									97		% activity (Piricularia oryzae; [8]): 90%
